Measurements: publication PMC8302244 (CPT: Pharmacometrics & Systems Pharmacology, 2021)

Tests used:
[1] = system: human cell lines derived from NC, SCLC, CRPC, TNBC, ER+BC and GIST; settings: cited from earlier work
CYP3A4 mRNA = settings: primary human hepatocytes, up to 300 μM; ref unpublished data on file; cited from earlier work
[2] = Semimechanistic population PK model
[3] = cited from earlier work
[4] = Predicted individual exposure metrics
[5] = final model Run 32, power estimate of covariate effect
[6] = Besylate substudy—80 mg q.d., W1D1
[7] = Besylate substudy—80 mg q.d., W3D4

CCNC(=O)C[C@@H]1N=C(c2ccc(Cl)cc2)c2cc(OC)ccc2-n2c(C)nnc21 [Molibresib]
proliferation of human cancer cell lines [1]: inhibits the proliferation

COc1ccc2c(c1)C(c1ccc(Cl)cc1)=N[C@@H](CC(N)=O)c1nnc(C)n1-2 [GSK3529246]
donors with concentration‐dependent increase in CYP3A4 mRNA (CYP3A4 mRNA): one donor
GSK3529246 central volume of distribution mV1/F ([2]; final model Run 32): 62.1 L
GSK3529246 clearance mCL/F ([2]; final model Run 32): 12.8 L/h
GSK3529246 transit rate mka ([2]; final model Run 32): 11.5 h⁻¹
AST effect on mCL/F [2, 5]: −0.194
Weight effect on V1/F and mV1/F [2, 5]: 0.717
IIV on GSK3529246 transit rate ωmka2 ([2]; final model Run 32, variance): 0.488
free fraction in plasma [3]: approximately 0.2
AUC0–24 Mean [4, 6]: 3110.0 ng/mL
Cmax Mean [4, 6]: 316.0 ng/mL
Cmin Mean [4, 6]: 34.7 ng/mL
AUC0–24 Mean [4, 7]: 5890.0 ng/mL
Cmax Mean [4, 7]: 469.0 ng/mL
Cmin Mean [4, 7]: 89.6 ng/mL
AUC0–24 Mean ([4]; Part 1—40 mg b.i.d., W1D1): 1860.0 ng/mL
Cmax Mean ([4]; Part 1—40 mg b.i.d., W1D1): 222.0 ng/mL
Cmin Mean ([4]; Part 1—40 mg b.i.d., W1D1): 94.5 ng/mL
AUC0–24 Mean ([4]; Part 1—40 mg b.i.d., W3D4): 5810.0 ng/mL
Cmax Mean ([4]; Part 1—40 mg b.i.d., W3D4): 365.0 ng/mL
Cmin Mean ([4]; Part 1—40 mg b.i.d., W3D4): 128.0 ng/mL
AUC0–24 Mean ([4]; Part 1—60 mg q.d., W1D1): 2640.0 ng/mL
Cmax Mean ([4]; Part 1—60 mg q.d., W1D1): 296.0 ng/mL
Cmin Mean ([4]; Part 1—60 mg q.d., W1D1): 21.3 ng/mL
AUC0–24 Mean ([4]; Part 1—60 mg q.d., W3D4): 4240.0 ng/mL
Cmax Mean ([4]; Part 1—60 mg q.d., W3D4): 379.0 ng/mL
Cmin Mean ([4]; Part 1—60 mg q.d., W3D4): 57.7 ng/mL
AUC0–24 Mean ([4]; Part 1—80 mg q.d., W1D1): 3230.0 ng/mL
Cmax Mean ([4]; Part 1—80 mg q.d., W1D1): 355.0 ng/mL
Cmin Mean ([4]; Part 1—80 mg q.d., W1D1): 65.8 ng/mL
AUC0–24 Mean ([4]; Part 1—80 mg q.d., W3D4): 4730.0 ng/mL
Cmax Mean ([4]; Part 1—80 mg q.d., W3D4): 448.0 ng/mL
Cmin Mean ([4]; Part 1—80 mg q.d., W3D4): 66.1 ng/mL
AUC0–24 Mean ([4]; Part 1—100 mg q.d., W1D1): 3910.0 ng/mL
Cmax Mean ([4]; Part 1—100 mg q.d., W1D1): 383.0 ng/mL
Cmin Mean ([4]; Part 1—100 mg q.d., W1D1): 46.8 ng/mL
AUC0–24 Mean ([4]; Part 1—100 mg q.d., W3D4): 6970.0 ng/mL
Cmax Mean ([4]; Part 1—100 mg q.d., W3D4): 567.0 ng/mL
Cmin Mean ([4]; Part 1—100 mg q.d., W3D4): 120.0 ng/mL
AUC0–24 Mean ([4]; Part 2—75 mg q.d., W1D1): 2720.0 ng/mL
Cmax Mean ([4]; Part 2—75 mg q.d., W1D1): 325.0 ng/mL
Cmin Mean ([4]; Part 2—75 mg q.d., W1D1): 57.5 ng/mL
AUC0–24 Mean ([4]; Part 2—75 mg q.d., W3D4): 5010.0 ng/mL
Cmax Mean ([4]; Part 2—75 mg q.d., W3D4): 431.0 ng/mL
Cmin Mean ([4]; Part 2—75 mg q.d., W3D4): 82.7 ng/mL
